In US11066369B2, “N-(pyridin-2-yl)pyridine-sulfonamide derivatives and their use in the treatment of disease” (Novartis AG, priority 2016, dated 2021):
Like-named read-outs stand apart in the source and are kept apart here.

Legend:
[1] = target: T1, horseradish peroxidase (HRP) tagged delF508-CFTR (Homo sapiens, UniProt P13569, DEL508-508); assay: Measurement of delF508-CFTR-HRP surface expression in CFBE41o- cells; format: cell-based; details: for Emax: read-out: DelF508-CFTR-HRP Amax %;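 on DelF508-CFTR-HRP Amax %: percent efficacy relative to reference corrector lumacaftor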
T1 construct: expressed in transfected cells
T1 sequence (P13569 with tags, fused parts or gaps DEL508-508): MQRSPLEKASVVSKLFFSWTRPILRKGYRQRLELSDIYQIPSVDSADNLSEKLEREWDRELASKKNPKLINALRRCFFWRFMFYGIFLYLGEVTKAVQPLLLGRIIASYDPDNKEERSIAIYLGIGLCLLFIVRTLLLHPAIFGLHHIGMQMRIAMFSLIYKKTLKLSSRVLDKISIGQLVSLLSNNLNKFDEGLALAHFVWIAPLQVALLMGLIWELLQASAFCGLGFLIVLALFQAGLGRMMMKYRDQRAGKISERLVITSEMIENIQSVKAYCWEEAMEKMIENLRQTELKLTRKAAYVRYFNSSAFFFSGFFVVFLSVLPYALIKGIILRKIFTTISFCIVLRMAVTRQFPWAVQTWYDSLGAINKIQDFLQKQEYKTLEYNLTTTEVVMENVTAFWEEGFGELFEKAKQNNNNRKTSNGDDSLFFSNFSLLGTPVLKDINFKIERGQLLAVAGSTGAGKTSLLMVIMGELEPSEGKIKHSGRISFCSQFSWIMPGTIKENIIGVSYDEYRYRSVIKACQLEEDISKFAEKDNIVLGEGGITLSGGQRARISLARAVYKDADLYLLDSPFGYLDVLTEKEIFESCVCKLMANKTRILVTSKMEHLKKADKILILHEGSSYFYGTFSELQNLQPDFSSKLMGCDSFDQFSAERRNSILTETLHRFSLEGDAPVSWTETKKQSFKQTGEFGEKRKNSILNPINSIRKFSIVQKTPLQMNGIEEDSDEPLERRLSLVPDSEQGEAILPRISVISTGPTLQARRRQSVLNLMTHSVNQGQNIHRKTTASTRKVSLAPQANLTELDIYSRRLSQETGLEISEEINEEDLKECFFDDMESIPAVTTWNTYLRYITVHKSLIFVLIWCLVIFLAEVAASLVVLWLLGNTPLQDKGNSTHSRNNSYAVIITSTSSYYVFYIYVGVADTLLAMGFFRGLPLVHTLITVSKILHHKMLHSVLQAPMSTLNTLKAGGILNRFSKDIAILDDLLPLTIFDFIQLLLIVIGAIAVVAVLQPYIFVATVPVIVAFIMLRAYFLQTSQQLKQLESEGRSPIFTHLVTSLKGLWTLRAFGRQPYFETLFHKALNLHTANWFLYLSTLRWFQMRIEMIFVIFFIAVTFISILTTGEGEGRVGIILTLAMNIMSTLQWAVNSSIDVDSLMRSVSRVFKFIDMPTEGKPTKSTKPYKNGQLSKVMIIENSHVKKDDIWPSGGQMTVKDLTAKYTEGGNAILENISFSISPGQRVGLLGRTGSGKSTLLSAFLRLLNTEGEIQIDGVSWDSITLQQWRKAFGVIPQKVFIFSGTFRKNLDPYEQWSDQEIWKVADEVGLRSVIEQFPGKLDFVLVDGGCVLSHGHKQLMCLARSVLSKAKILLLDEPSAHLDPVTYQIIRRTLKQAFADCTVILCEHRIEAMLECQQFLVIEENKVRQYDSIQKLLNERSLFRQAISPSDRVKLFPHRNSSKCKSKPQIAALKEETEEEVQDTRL
Outline: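 CFBE41o- bronchial epithelial cells stably expressing delF508-CFTR with HRP in the fourth extracellular loop; expression induced 48h with 500 ng/mL doxycycline, then compounds added (top 10 μM, 10-point 3-fold series, ≤0.5% DMSO) for 24h at 37° C. Surface HRP measured by luminescence with cell-impermeant substrate; EC50 from logistic fit of triplicates, plate-normalized to lowest concentration; efficacy also relative to a reference corrector.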

delF508-CFTR = target: T2, delF508-CFTR (Homo sapiens, UniProt P13569, DEL508-508); assay: Measurement of delF508-CFTR functional activity in primary human bronchial epithelial cells (HBECs) using Multi-Transepithelial Clamp Circuit (MTECC-24) assay; format: cell-based; details: primary CF HBECs; for MTECC24 CFHBEC- Amax %: test compound added 24h before assay plus potentiator, relative to reference combination (2 μM corrector + 0.5 μM potentiator); for EC50: test compound added 24h before assay, in the presence of potentiator, mean of at least two replicates, read-out: MTECC24 CFHBEC- EC50
T2 construct: functional activity of the CFTR channel (Chloride ion transport) in patient derived primary human bronchial epithelial cells; host or cells: patient-derived primary human bronchial epithelial cells (delF508-CFTR)
T2 sequence (P13569 with tags, fused parts or gaps DEL508-508): as above
Outline: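 Patient-derived primary delF508-CFTR HBECs, differentiated at air-liquid interface ~2 weeks, treated basolaterally with compound for 24 h, then apical and basolateral compound in HEPES pH 7.4 assay medium. Equivalent short-circuit current (Ieq) recorded on MTECC-24 with sequential amiloride, forskolin, potentiator and INH-172; normalized to 0.1% DMSO, EC50 from curve fit.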

[2] = delF508-CFTR-HRP surface expression, CFBE41o- cells
[3] = delF508-CFTR-HRP surface expression, CFBE41o- cells, read-out: DelF508-CFTR-HRP EC50

Structure (SMILES)	Emax [1, 2] [%]	EC50 [1, 3] [nM]	MTECC24 CFHBEC- Amax % (delF508-CFTR) [%]	EC50 (delF508-CFTR) [nM]	DelF508-CFTR-HRP Amax % [1, 2] [%]	EC50 [1] [nM]	Emax ([1]; CFBE41o-) [%]
Cc1ccc(F)cc1-c1nc(NS(=O)(=O)c2ccnc(N3CC(O)C3)c2)ccc1Cl [Example 322, N-(5-chloro-6-(5-fluoro-2-methylphenyl)pyridin-2-yl)-2-(3-hydroxyazetidin-1-yl)pyridine-4-sulfonamide]	310	2610	52.6	222	–	–	–
Cc1c(F)cccc1-c1nc(NS(=O)(=O)c2ccnc(N3CC(O)C3)c2)ccc1Cl [Example 323, N-(5-chloro-6-(3-fluoro-2-methylphenyl)pyridin-2-yl)-2-(3-hydroxyazetidin-1-yl)pyridine-4-sulfonamide]	252	2770	67.7	147	–	–	–
Cc1ccc(F)cc1-c1nc(NS(=O)(=O)c2ccnc(N3CC(O)C3)c2)ccc1C(F)(F)F [Example 324, N-(6-(5-fluoro-2-methylphenyl)-5-(trifluoromethyl)pyridin-2-yl)-2-(3-hydroxyazetidin-1-yl)pyridine-4-sulfonamide]	402	2640	49.4	47.9	–	–	–
O=S(=O)(Nc1ccc(C(F)(F)F)c(-c2ccccc2C(F)(F)F)n1)c1ccnc(N2CC(O)C2)c1 [Example 325, 2-(3-hydroxyazetidin-1-yl)-N-(5-(trifluoromethyl)-6-(2-(trifluoromethyl)phenyl)pyridin-2-yl)pyridine-4-sulfonamide]	257	2400	60.1	15.4	–	–	–
Cc1ccc(F)cc1-c1nc(NS(=O)(=O)c2ccnc(N3CCNCC3)c2)ccc1C(F)(F)F [Example 326, N-(6-(5-fluoro-2-methylphenyl)-5-(trifluoromethyl)pyridin-2-yl)-2-(piperazin-1-yl)pyridine-4-sulfonamide]	103	3810	50.5	203	–	–	–
Cc1ccccc1-c1nc(NS(=O)(=O)c2cccc(N3CCC[C@@H](C(=O)O)C3)n2)ccc1C(F)(F)F [Example 332, (3R)-1-(6-{[6-(2-methylphenyl)-5-(trifluoromethyl)pyridin-2-yl]sulfamoyl}pyridin-2-yl)piperidine-3-carboxylic Acid]	521	1110	84.0	4.75	–	–	–
Cc1ccccc1-c1nc(NS(=O)(=O)c2cccc(N3CCC[C@H](C(=O)O)C3)n2)ccc1C(F)(F)F [Example 333, (3S)-1-(6-{[6-(2-methylphenyl)-5-(trifluoromethyl)pyridin-2-yl]sulfamoyl}pyridin-2-yl)piperidine-3-carboxylic Acid]	428	1950	47.6	7.9	–	–	–
Cc1ccccc1-c1nc(NS(=O)(=O)c2cccc(N3CCCC(C)(C(=O)O)C3)n2)ccc1C(F)(F)F (centres unmarked) [Example 337, 3-methyl-1-(6-{[6-(2-methylphenyl)-5-(trifluoromethyl)pyridin-2-yl]sulfamoyl}pyridin-2-yl)piperidine-3-carboxylic Acid]	–	2250	51.5	2.72	–	–	–
Cc1ccccc1-c1nc(NS(=O)(=O)c2cccc(OC3CCC(C(=O)O)CC3)n2)ccc1C(F)(F)F (centres unmarked) [Example 342, 4-((6-(N-(6-(o-tolyl)-5-(trifluoromethyl)pyridin-2-yl)sulfamoyl)pyridin-2-yl)oxy)cyclohexanecarboxylic Acid]	266	1900	85.8	80.2	–	–	–
CC1(C(=O)O)CCN(c2cccc(S(=O)(=O)Nc3ccc(C(F)(F)F)c(-c4ccccc4N4CCOCC4)n3)n2)CC1 [Example 343, 4-methyl-1-(6-(N-(6-(2-morpholinophenyl)-5-(trifluoromethyl)pyridin-2-yl)sulfamoyl)pyridin-2-yl)piperidine-4-carboxylic Acid]	197	2150	65.3	86.1	–	–	–
Cc1ccccc1-c1nc(NS(=O)(=O)c2cccc(N3CCC(C(=O)O)CC3)n2)ccc1C(F)(F)F [Example 344, 1-(6-{[6-(2-methylphenyl)-5-(trifluoromethyl)pyridin-2-yl]sulfamoyl}pyridin-2-yl)piperidine-4-carboxylic Acid]	132	2810	46.7	22.8	–	–	–
Cc1ccccc1-c1nc(NS(=O)(=O)c2cccc(N3C4CCCC3CC(C(=O)O)C4)n2)ccc1C(F)(F)F (centres unmarked) [Example 345, 9-(6-{[6-(2-methylphenyl)-5-(trifluoromethyl)pyridin-2-yl]sulfamoyl}pyridin-2-yl)-9-azabicyclo[3.3.1]nonane-3-carboxylic Acid]	–	–	90.4	41.5	–	1330	557
CCCC1(C(=O)O)CCN(c2cccc(S(=O)(=O)Nc3ccc(C(F)(F)F)c(-c4ccccc4CC)n3)n2)CC1 [Example 351, 1-(6-{[6-(2-ethylphenyl)-5-(trifluoromethyl)pyridin-2-yl]sulfamoyl}pyridin-2-yl)-4-propylpiperidine-4-carboxylic Acid]	492	870	99.7	107	–	–	–
CCCC1(C(=O)O)CCCN(c2cccc(S(=O)(=O)Nc3ccc(C(F)(F)F)c(-c4ccccc4CC)n3)n2)C1 (centres unmarked) [Example 352, 1-(6-{[6-(2-ethylphenyl)-5-(trifluoromethyl)pyridin-2-yl]sulfamoyl}pyridin-2-yl)-3-propylpiperidine-3-carboxylic Acid]	714	699	82.2	0.808	–	–	–
Cc1ccccc1-c1nc(NS(=O)(=O)c2cccc(N[C@H]3C[C@@](C)(C(=O)O)C3)n2)ccc1C(F)(F)F [Example 356, (1s,3s)-1-methyl-3-((6-(N-(6-(o-tolyl)-5-(trifluoromethyl)pyridin-2-yl)sulfamoyl)pyridin-2-yl)amino)cyclobutanecarboxylic Acid]	–	1510	70.1	7.49	553.8	–	–

The next lines start with results.

Emax [1, 2] [%]	EC50 [1, 3] [nM]	MTECC24 CFHBEC- Amax % (delF508-CFTR) [%]	EC50 (delF508-CFTR) [nM]	DelF508-CFTR-HRP Amax % [1, 2] [%]	Structure (SMILES)	EC50 [1] [nM]	Emax ([1]; CFBE41o-) [%]
–	2060	70.6	38.5	–	Cc1ccc(F)cc1-c1nc(NS(=O)(=O)c2cccc(N3CCC[C@@H](C(=O)O)C3)n2)ccc1C(F)(F)F [Example 357, (3R)-1-(6-{[6-(5-fluoro-2-methylphenyl)-5-(trifluoromethyl)pyridin-2-yl]sulfamoyl}pyridin-2-yl)piperidine-3-carboxylic Acid]	–	–
869	2320	57.9	4.02	–	Cc1c(F)cccc1-c1nc(NS(=O)(=O)c2cccc(N3CCC[C@@H](C(=O)O)C3)n2)ccc1C(F)(F)F [Example 358, (3R)-1-(6-{[6-(3-fluoro-2-methylphenyl)-5-(trifluoromethyl)pyridin-2-yl]sulfamoyl}pyridin-2-yl)piperidine-3-carboxylic Acid]	–	–
648	1960	86.7	2.04	–	Cc1ccc(F)cc1-c1nc(NS(=O)(=O)c2cccc(N3CCC[C@H](C(=O)O)C3)n2)ccc1C(F)(F)F [Example 359, (3S)-1-(6-{[6-(5-fluoro-2-methylphenyl)-5-(trifluoromethyl)pyridin-2-yl]sulfamoyl}pyridin-2-yl)piperidine-3-carboxylic Acid]	–	–
546	2110	57.5	47.4	–	Cc1c(F)cccc1-c1nc(NS(=O)(=O)c2cccc(N3CCC[C@H](C(=O)O)C3)n2)ccc1C(F)(F)F [Example 360, (3S)-1-(6-{[6-(3-fluoro-2-methylphenyl)-5-(trifluoromethyl)pyridin-2-yl]sulfamoyl}pyridin-2-yl)piperidine-3-carboxylic Acid]	–	–
–	2080	51.9	11.3	–	Cc1ccc(F)cc1-c1nc(NS(=O)(=O)c2cccc(N3CCCC(C)(C(=O)O)C3)n2)ccc1C(F)(F)F (centres unmarked) [Example 361, 1-(6-{[6-(5-fluoro-2-methylphenyl)-5-(trifluoromethyl)pyridin-2-yl]sulfamoyl}pyridin-2-yl)-3-methylpiperidine-3-carboxylic Acid]	–	–
–	2000	77.9	0.533	–	Cc1c(F)cccc1-c1nc(NS(=O)(=O)c2cccc(N3CCCC(C)(C(=O)O)C3)n2)ccc1C(F)(F)F (centres unmarked) [Example 362, 1-(6-{[6-(3-fluoro-2-methylphenyl)-5-(trifluoromethyl)pyridin-2-yl]sulfamoyl}pyridin-2-yl)-3-methylpiperidine-3-carboxylic Acid]	–	–
–	1340	66.9	0.797	–	O=C(O)[C@@H]1CCCN(c2cccc(S(=O)(=O)Nc3ccc(C(F)(F)F)c(-c4ccccc4C4CCC4)n3)n2)C1 [Example 366, (R)-1-(6-(N-(6-(2-cyclobutylphenyl)-5-(trifluoromethyl)pyridin-2-yl)sulfamoyl)pyridin-2-yl)piperidine-3-carboxylic Acid]	–	–
